The text below walks through data of the Kinase Knowledgebase extract (Sharma et al. 2016).

One test addresses MAPK14 (human) (UniProt Q16539). Briefly: Inhibition of LPS-Stimulated TNF-alpha Production in Human Whole Blood.
The target in another test is MAPK14 (UniProt Q16539). Briefly: Inhibition of MAPK14 Kinase Activity.
MAPK14, sequence (Q16539 whole entry, looked up): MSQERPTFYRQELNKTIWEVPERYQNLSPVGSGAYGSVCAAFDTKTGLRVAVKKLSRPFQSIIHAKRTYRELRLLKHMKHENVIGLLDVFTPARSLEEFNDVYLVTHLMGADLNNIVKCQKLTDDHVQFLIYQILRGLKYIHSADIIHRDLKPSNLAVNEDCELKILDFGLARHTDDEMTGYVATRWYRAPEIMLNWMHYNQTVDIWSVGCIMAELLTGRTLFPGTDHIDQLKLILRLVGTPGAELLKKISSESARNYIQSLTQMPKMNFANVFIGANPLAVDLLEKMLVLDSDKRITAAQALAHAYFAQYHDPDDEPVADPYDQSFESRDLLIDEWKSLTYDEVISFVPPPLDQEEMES

MAPK14 (human), sequence (Q16539 whole entry, looked up): as above

As usually defined, the IC50 is the point on the concentration scale where inhibition reaches its midpoint. A lower IC50 goes with inhibition by little substance. Turning to `COc1cc2ncnc(Nc3cc(NC(=O)c4ccccc4)c(Cl)cc3F)c2cc1OC`, the IC50 against MAPK14 (human) is > 50000 nM.
Same read-out and setting: the same measure for `COc1cc2ncnc(Nc3cccc(Cl)c3)c2cc1OC`: > 50000 nM.
The molecule `Cc1ccc(NC(=O)c2ccnc(N3CCOCC3)c2)cc1Nc1ccnc(OC2CCN(C)CC2)n1` registered an IC50 against MAPK14 of 45 nM.
Still for that read-out and setting: next, `Cc1ccc(NC(=O)c2ccnc(N3CCOCC3)c2)cc1Nc1ccnc(Cl)n1`: 19 nM.
For `COc1cc2ncnc(Nc3cc(NC(=O)c4cccc(N5CCOCC5)c4)ccc3C)c2cc1OCCN(C(C)C)C(C)C`, the IC50 at MAPK14 (human) was 3500 nM; on MAPK14, 52 nM.
Molecule `Cc1ccc(NC(=O)c2ccnc(N3CCOCC3)c2)cc1Nc1ccnc(OCCCN(C)C)n1` yielded an IC50 at MAPK14 of 37 nM.
On to `Cc1ccc(NC(=O)c2ccnc(N3CCOCC3)c2)cc1Nc1cc(Cl)ncn1`, for which the IC50 against MAPK14 (human) was > 50000 nM.
Molecule `Cc1ccc(NC(=O)c2ccnc(N3CCOCC3)c2)cc1Nc1ccnc(NCCCN2CCCC2)n1` displayed an IC50 against MAPK14 of 58 nM.
As for `COc1cc2ncnc(Nc3cc(NC(=O)c4ccccc4)ccc3Cl)c2cc1OC`, the results for the half-inhibitory concentration (IC50) against MAPK14 (human) and against MAPK14 were > 50000 nM and 88 nM, respectively.
Consider `Cc1ccc(NC(=O)c2ccnc(N3CCOCC3)c2)cc1Nc1ccnc(OCC2CCCN(C)C2)n1` (stereo not given), for which the half-inhibitory concentration (IC50) against MAPK14 stood at 33 nM.
For the molecule `COc1cc2ncnc(Nc3cc(NC(=O)c4cccc(N5CCOCC5)c4)ccc3C)c2cc1OCCN(C)C`, the IC50 was determined as 6900 nM against MAPK14 (human) and 35 nM at MAPK14.
On to `CSc1nccc(Nc2cc(NC(=O)c3cc(F)cc(N4CCOCC4)c3)ccc2C)n1`, for which the IC50 against MAPK14 was 14 nM.
As to `COc1cc2ncnc(Nc3cc(NC(=O)c4cccc(N5CCOCC5)c4)ccc3C)c2cc1OCCN1CCOCC1`, the IC50 on MAPK14 (human) was determined as 7800 nM; at MAPK14, 24 nM.
`Cc1ccc(NC(=O)c2ccnc(N3CCOCC3)c2)cc1Nc1ccnc(NCCCN2CCOCC2)n1`: the 50% inhibitory concentration (IC50) at MAPK14 (human) is > 50000 nM; on MAPK14 it was 98 nM.
For `COc1cc2ncnc(Nc3cc(NC(=O)c4cccc(N(C)C)c4)ccc3Cl)c2cc1OC`, in that order: > 50000 nM and 47 nM.
Turning to `Cc1ccc(NC(=O)c2ccnc(N3CCOCC3)c2)cc1Nc1cc(NCCCN2CCCN(C)CC2)ncn1`, the concentration for half-maximal inhibition (IC50) is > 50000 nM on MAPK14 (human) and 1220 nM at MAPK14.
For the molecule `COc1cc2ncnc(Nc3cccc(NC(=O)c4ccccc4)c3)c2cc1OC`, the IC50 against MAPK14 (human) was > 50000 nM.
On the same count and under the same terms, the same measure for `C=CCN(C)c1nccc(Nc2cc(NC(=O)c3ccnc(N4CCOCC4)c3)ccc2C)n1`: > 50000 nM.
On MAPK14, `COc1cc2ncnc(Nc3cc(NC(=O)c4cccc(N5CCOCC5)c4)ccc3C)c2cc1OCCN1CCCC1` came in with an IC50 of 39 nM.
Turning to `COc1cc2ncnc(Nc3ccc(Cl)c(NC(=O)c4cccc(N(C)C)c4)c3)c2cc1OC`, the IC50 at MAPK14 (human) is > 50000 nM.
For the molecule `COc1cc2ncnc(Nc3cc(NC(=O)c4cccc(N5CCOCC5)c4)ccc3C)c2cc1OCCN1CCCCC1`, the IC50 at MAPK14 (human) was found to be 4600 nM; at MAPK14, 56 nM.
`COc1cc2ncnc(Nc3ccc(C)c(NC(=O)c4ccccc4)c3)c2cc1OC`: the IC50 against MAPK14 (human) is > 50000 nM.
At MAPK14, `Cc1ccc(NC(=O)c2ccnc(N3CCOCC3)c2)cc1Nc1ccnc(OCC(C)(C)CN(C)C)n1` registered an IC50 of 79 nM.
In the case of `COc1cc2ncnc(Nc3cccc(NC(=O)c4cccc(N(C)C)c4)c3)c2cc1OC`, the IC50 on MAPK14 (human) is > 50000 nM.
Still for that read-out and setting: next, `COc1cc2ncnc(Nc3ccc(Cl)c(NC(=O)c4ccccc4)c3)c2cc1OC`: > 50000 nM.
On to `COc1cc2ncnc(Nc3cc(NC(=O)c4ccccc4)c(F)cc3F)c2cc1OC`, for which the values for the IC50 on MAPK14 (human) and against MAPK14 were > 50000 nM and 54 nM, respectively.
For `COc1cc2ncnc(Nc3cccc(NC(=O)c4ccccc4)c3F)c2cc1OC`, on MAPK14 (human), the IC50 is > 50000 nM.
`COc1cc2ncnc(Nc3cc(NC(=O)c4ccccc4)ccc3C)c2cc1OC` yielded an IC50 against MAPK14 of 78 nM.
Same read-out and setting: the same measure for `CCCN1CCC(Oc2nccc(Nc3cc(NC(=O)c4cccc(N5CCOCC5)c4)ccc3C)n2)CC1`: 49 nM; for `CCCN1CCC(Oc2nccc(Nc3cc(NC(=O)c4ccnc(N5CCOCC5)c4)ccc3C)n2)CC1`: 55 nM.
Consider `Cc1ccc(NC(=O)c2ccnc(N3CCOCC3)c2)cc1Nc1cc(NCCCN2CCCC2)ncn1`, for which, at MAPK14 (human), the 50% inhibitory concentration (IC50) was > 50000 nM.
